Results from patent US20250129101A1, “Compound, Pharmaceutical Composition Comprising the Same and Method for Treating Cancer Using the Same” (NATIONAL TSING HUA UNIVERSITY, priority 2023, published 2025).

Key:
[1] = biological target: T1, KIF2C (Homo sapiens, UniProt Q99661); assay: In vitro validation: KIF2C kinesin activity, malachite green-based phosphate colorimetric assay; type: biochemical; conditions: for EC50: concentration that inhibits 50% of KIF2C activity
T1 construct: KIF2C (216-598 a.a.); 6xHis (C); made in house; host or cells: E. coli BL21 (DE3), pET-28a
Method: (§1) The in vitro validation was performed by measuring KIF2C kinesin activity using malachite green-based phosphate colorimetric assay (BioVision). […] The microtubules from porcine brain tubulin (Cytoskeleton) or purified from HEK293 cells in Free-style medium (293Fs) were dissolved in the BRB80 buffer (80 mM PIPES pH 6.8, 1 mM EGTA, 1 mM MgCl2, 1 mM GTP, 1 mM DTT, and 10% DMSO) at 37° C. for 2 hr. Phosphates released from kinesin-mediated ATP hydrolysis was measured by adding 30 μL of the phosphate colorimetric reagent (BioVision), incubated for 10 min, and then measured with absorbance at 650 nm. […] The cell validation was performed by measuring cytotoxicity in MDA-MB-231 cells. The cells were cultured in a 96-well plate at a confluence of 2000 cells/well with indicates compounds for specific days. When the time was up, the culture medium in the plate was aspirated and replaced with a prepared CellTiter-Glo reagent (Promega)/DMEM mixture (1:1 mix of CellTiter-Glo reagent and serum-supplemented DMEM). After incubation for 10 min, the luminescence was measured with an ELISA plate reader to determine the cell viability.
In vitro kinesin activity was measured using malachite green-based phosphate colorimetric assay (BioVision). […] The microtubules from porcine brain tubulin (Cytoskeleton) or purified from HEK293 cells in Free-style medium (293Fs) were dissolved in the BRB80 buffer (80 mM PIPES pH 6.8, 1 mM EGTA, 1 mM MgCl2, 1 mM GTP, 1 mM DTT, and 10% DMSO) at 37° C. for 2 hr. Phosphates released from kinesin-mediated ATP hydrolysis was measured by adding 30 μL of the phosphate colorimetric reagent (BioVision), incubated for 10 min, and then measured with absorbance at 650 nm.
Constructs of sN+M regions of KIF2C (216-598 a.a.), KIF2A (181-562 a.a.) and KIF2B (171-553 a.a.) with C-terminal 6×His tag were subcloned into pET-28a vector and expressed in BL21 (DE3) E. coli cells (Novartis) cultured in Luria-Bertani medium supplemented with 50 ug/mL kanamycin at 37° C. After induction with 0.8 mM IPTG for 18 hr at 20° C., the cells were pelleted by centrifugation at 6000 rpm for 30 min at 10° C. The collected pellets were resuspended in 30 mL of buffer A (20 mM Tris-HCl pH 7.5, 500 mM NaCl, 10 mM imidazole, 1% CHAPS, and 1 mM PMSF) and next subjected to a high-pressure homogenizer (EmulsiFlex-C3) for cell lysis. After removing the cell debris by centrifugation at 13000 rpm for 30 min at 10° C., the recombinant Kinesin-13 in the supernatant was purified using nickel affinity chromatography. Firstly, the supernatant was applied to the Ni-NTA column (GE Healthcare) pre-equilibrated with buffer A. Secondly, the column was washed with 10× column volumes of buffer A to remove the unwanted proteins. The washed column was then eluted with 10× column volumes of buffer containing increasing concentrations of imidazole (40, 100, 300, 1000 mM), and the majority of the recombinant Kinesin-13 protein was eventually obtained in a fraction of 300 mM imidazole. The fractions containing the recombinant Kinesin-13 were subsequently concentrated in the buffer B (20 mM Tris-HCl pH 7.5, 10 mM imidazole, 50 mM NaCl, 2 mM DTT) using an Amicon® Ultra filter (Millipore) and subjected to cation exchange column (Capto S, GE Healthcare) for further purification. The recombinant Kinesin-13 was then eluted in elution buffer (20 mM Tris-HCl pH 7.5 and 2 mM DTT) containing 400 mM of NaCl and stored at −80° C. for long-term storage.

[2] = test system: MDA-MB-231 cells; assay: Cell validation: cytotoxicity in MDA-MB-231 cells (CellTiter-Glo); type: cell-based; conditions: for IC50: Homo sapiens; for IC50 / Cell validation (IC50): cytotoxicity in MDA-MB-231 cells
Method: as §1
The cancer cells were cultured in a 96-well plate at a confluence of 1000-2000 cells/well with indicated drugs for specific days. When the time was up, the culture medium in the plate was aspirated and replaced with a prepared CellTiter-Glo reagent/DMEM mixture (1:1 mix of CellTiter-Glo reagent and serum-supplemented DMEM). After incubation for 10 min, the luminescence (proportional to the number of living cells) was measured with an ELISA plate reader to determine the cell viability.

T1 sequence (Q99661 216-598): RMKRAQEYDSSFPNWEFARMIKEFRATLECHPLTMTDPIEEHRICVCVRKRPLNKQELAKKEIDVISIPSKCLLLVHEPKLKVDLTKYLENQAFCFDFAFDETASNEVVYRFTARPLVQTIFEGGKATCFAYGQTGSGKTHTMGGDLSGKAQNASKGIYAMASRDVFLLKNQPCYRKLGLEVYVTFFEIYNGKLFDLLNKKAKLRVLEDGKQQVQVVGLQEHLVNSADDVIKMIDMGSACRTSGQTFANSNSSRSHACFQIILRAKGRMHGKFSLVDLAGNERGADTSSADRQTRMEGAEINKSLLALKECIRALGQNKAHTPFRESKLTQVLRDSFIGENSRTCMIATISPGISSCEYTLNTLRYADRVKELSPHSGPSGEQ

CC1=C(C(=O)OC(C)C)C(c2ccc(Cl)cc2)n2c(s/c(=C\c3ccc(F)cc3)c2=O)=N1 (centres unmarked) [2S0 (22), isopropyl (Z)-5-(4-chlorophenyl)-2-(4-fluorobenzylidene)-7-methyl-3-oxo-2,3-dihydro-5H-thiazolo[3,2-a]pyrimidine-6-carboxylate]
EC50 [1]: > 100 µM | IC50 [2]: > 50 µM

COc1ccc(/C=c2\sc3n(c2=O)C(c2ccc(Cl)cc2)C(C(=O)OC(C)C)=C(C)N=3)cc1 (centres unmarked) [3S0 (23), isopropyl (Z)-5-(4-chlorophenyl)-2-(4-methoxybenzylidene)-7-methyl-3-oxo-2,3-dihydro-5H-thiazolo[3,2-a]pyrimidine-6-carboxylate]
EC50 [1]: > 100 µM | IC50 [2]: > 50 µM

CCOC(=O)COc1ccc(/C=c2\sc3n(c2=O)C(c2ccc(Cl)cc2)C(C(=O)OC(C)C)=C(C)N=3)cc1 (centres unmarked) [4S0 (26), 1-methylethyl 5-(4-chlorophenyl)-2-[[4-(2-ethoxy-2-oxoethoxy)phenyl]methylene]-2,3-dihydro-7-methyl-3-oxo-5H-thiazolo[3,2-a]pyrimidine-6-carboxylate]
EC50 [1]: > 100 µM | IC50 [2]: > 50 µM

CC1=C(C(=O)OC(C)C)C(c2ccc(Cl)cc2)n2c(s/c(=C\c3ccc(OCC(=O)N4CCN(C)CC4)cc3)c2=O)=N1 (centres unmarked) [6S0 (13), propan-2-yl (2Z)-5-(4-chlorophenyl)-7-methyl-2-(4-(2-(4-methylpiperazin-1-yl)-2-oxoethoxy)benzylidene)-3-oxo-2,3-dihydro-5H-[1,3]thiazolo[3,2-a]pyrimidine-6-carboxylate]
EC50 [1]: 50 to 100 µM | cytotoxicity on MDA-MB-231 cells (in words) ([2]; 72 hr): showed cytotoxicity | Cell validation (IC50) [2]: + +

CC1=C(C(=O)OC(C)C)C(c2ccc(Cl)cc2)n2c(s/c(=C\c3ccc(OCC(N)=O)cc3)c2=O)=N1 (centres unmarked) [8S0 (15), isopropyl (Z)-2-(4-(2-amino-2-oxoethoxy)benzylidene)-5-(4-chlorophenyl)-7-methyl-3-oxo-2,3-dihydro-5H-thiazolo[3,2-a]pyrimidine-6-carboxylate]
EC50 [1]: > 100 µM | IC50 [2]: > 50 µM

CC1=C(C(=O)OC(C)C)C(c2ccc(F)cc2)n2c(s/c(=C\c3ccc(OCC(=O)O)cc3)c2=O)=N1 (centres unmarked) [9S0 (32), (4-(((2Z)-5-(4-fluorophenyl)-7-methyl-3-oxo-6-((propan-2-yloxy)carbonyl)-5H-[1,3]thiazolo[3,2-a]pyrimidin-2(3H)-ylidene)methyl)phenoxy)acetic acid]
EC50 [1]: < 50 µM | IC50 [2]: > 50 µM

CNC(=O)COc1ccc(/C=c2\sc3n(c2=O)C(c2ccc(F)cc2)C(C(=O)OC(C)C)=C(C)N=3)cc1 (centres unmarked) [10S0 (35), isopropyl (Z)-5-(4-fluorophenyl)-7-methyl-2-(4-(2-(methylamino)-2-oxoethoxy)benzylidene)-3-oxo-2,3-dihydro-5H-thiazolo[3,2-a]pyrimidine-6-carboxylate]
EC50 [1]: > 100 µM | IC50 [2]: > 50 µM

CC1=C(C(=O)OC(C)C)C(c2ccc(Cl)cc2)n2c(s/c(=C\c3ccc(OCC(=O)N4CCN(C(C)C)CC4)cc3)c2=O)=N1 (centres unmarked) [11S0 (16), isopropyl (Z)-5-(4-chlorophenyl)-2-(4-(2-(4-isopropylpiperazin-1-yl)-2-oxoethoxy)benzylidene)-7-methyl-3-oxo-2,3-dihydro-5H-thiazolo[3,2-a]pyrimidine-6-carboxylate]
EC50 [1]: > 100 µM | Cell validation (IC50) [2]: + +

CCOC(=O)C1=C(C)N=c2s/c(=C\c3ccc(OCC(=O)O)cc3)c(=O)n2C1c1ccc(Cl)cc1 (centres unmarked) [12S0 (79), (Z)-2-(4-((5-(4-chlorophenyl)-6-(ethoxycarbonyl)-7-methyl-3-oxo-5H-thiazolo[3,2-a]pyrimidin-2(3H)-ylidene)methyl)phenoxy)acetic acid]
EC50 [1]: < 20 µM | IC50 [2]: > 50 µM

COC(=O)C1=C(C)N=c2s/c(=C\c3ccc(OCC(=O)O)cc3)c(=O)n2C1c1ccc(Cl)cc1 (centres unmarked) [14S0 (78), (Z)-2-(4-((5-(4-chlorophenyl)-6-(methoxycarbonyl)-7-methyl-3-oxo-5H-thiazolo[3,2-a]pyrimidin-2(3H)-ylidene)methyl)phenoxy)acetic acid]
EC50 [1]: 50 to 100 µM | IC50 [2]: > 50 µM

CC1=C(C(=O)OC(C)C)C(c2cccc(Cl)c2)n2c(s/c(=C\c3ccc(OCC(=O)O)cc3)c2=O)=N1 (centres unmarked) [15S0 (66), (Z)-2-(4-((5-(3-chlorophenyl)-6-(isopropoxycarbonyl)-7-methyl-3-oxo-5H-thiazolo[3,2-a]pyrimidin-2(3H)-ylidene)methyl)phenoxy)acetic acid]
EC50 [1]: > 100 µM | IC50 [2]: > 50 µM

CCN1CCN(C(=O)COc2ccc(/C=c3\sc4n(c3=O)C(c3cccc(Cl)c3)C(C(=O)OC(C)C)=C(C)N=4)cc2)CC1 (centres unmarked) [16S0 (67), isopropyl (Z)-5-(3-chlorophenyl)-2-(4-(2-(4-ethylpiperazin-1-yl)-2-oxoethoxy)benzylidene)-7-methyl-3-oxo-2,3-dihydro-5H-thiazolo[3,2-a]pyrimidine-6-carboxylate]
EC50 [1]: 50 to 100 µM | Cell validation (IC50) [2]: + +

CC1=C(C(=O)OC(C)C)C(c2ccc(C)cc2)n2c(s/c(=C\c3ccc(OCC(=O)O)cc3)c2=O)=N1 (centres unmarked) [17S0 (50), (Z)-2-(4-((6-(isopropoxycarbonyl)-7-methyl-3-oxo-5-(p-tolyl)-5H-thiazolo[3,2-a]pyrimidin-2(3H)-ylidene)methyl)phenoxy)acetic acid]
EC50 [1]: > 100 µM | IC50 [2]: > 50 µM

CCN1CCN(C(=O)COc2ccc(/C=c3\sc4n(c3=O)C(c3ccc(C)cc3)C(C(=O)OC(C)C)=C(C)N=4)cc2)CC1 (centres unmarked) [18S0 (51), isopropyl (Z)-2-(4-(2-(4-ethylpiperazin-1-yl)-2-oxoethoxy)benzylidene)-7-methyl-3-oxo-5-(p-tolyl)-2,3-dihydro-5H-thiazolo[3,2-a]pyrimidine-6-carboxylate]
EC50 [1]: 50 to 100 µM | Cell validation (IC50) [2]: + +

CC1=C(C(=O)OC(C)C)C(c2ccc(N(C)C)cc2)n2c(s/c(=C\c3ccc(OCC(=O)N4CCN(C)CC4)cc3)c2=O)=N1 (centres unmarked) [19S0 (56), isopropyl (Z)-5-(4-(dimethylamino)phenyl)-7-methyl-2-(4-(2-(4-methylpiperazin-1-yl)-2-oxoethoxy)benzylidene)-3-oxo-2,3-dihydro-5H-thiazolo[3,2-a]pyrimidine-6-carboxylate]
EC50 [1]: < 50 µM | Cell validation (IC50) [2]: + +

CC1=C(C(=O)OC(C)C)C(c2ccc(Br)cc2)n2c(s/c(=C\c3ccc(OCC(=O)N4CCN(C)CC4)cc3)c2=O)=N1 (centres unmarked) [20S0 (41), isopropyl (Z)-5-(4-bromophenyl)-7-methyl-2-(4-(2-(4-methylpiperazin-1-yl)-2-oxoethoxy)benzylidene)-3-oxo-2,3-dihydro-5H-thiazolo[3,2-a]pyrimidine-6-carboxylate]
EC50 [1]: 50 to 100 µM | Cell validation (IC50) [2]: + + +

CC1=C(C(=O)OC(C)C)C(c2ccc(Cl)cc2)n2c(s/c(=C\c3ccc(OCC(=O)N4CCC(N5CCN(C)CC5)CC4)cc3)c2=O)=N1.O=C(O)/C=C\C(=O)O (centres unmarked) [24S9 (135), isopropyl (Z)-5-(4-chlorophenyl)-7-methyl-2-(4-(2-(4-(4-methylpiperazin-1-yl)piperidin-1-yl)-2-oxoethoxy)benzylidene)-3-oxo-2,3-dihydro-5H-thiazolo[3,2-a]pyrimidine-6-carboxylate maleate]
Cell validation (IC50) [2]: + + + +

COC(=O)Nc1nc2ccc(C(=O)c3cccs3)cc2[nH]1 [nocodazole, reference compound]
KIF2C activity in reaction containing nocodazole (in words) ([1]; 1 μM nocodazole): largely reduced
